Data on 72 molecules can be found in patent US9133439B2, “Differentiation of human embryonic stem cells” (Janssen Biotech, Inc., priority 2009, dated 2015).

Several values for one entry are separate records, joined by “and”; a condition that tells them apart may be missing. Identical values can stand only once. Like-named read-outs stand apart in the source and are kept apart here.

Assay [1] concerns H1 human embryonic stem cells (differentiated). It counts as cell-based.
The test system is the same in assay [2]. Description: Example 3: confirmation screen, total cell number (nuclei) by high content analysis. It counts as cell-based. The conditions noted are these: relative to control treatment. From the text:
All wells were fed and treated identically.

Where [3] appears, read: ratio for well treated with individual compound relative to average of wells with DMSO alone.
Setting [4] is: 2.5 uM, steps 3 and 4, triplicate.

On to `CCCCCCCCCCCCCCCC(=O)OC(CC(=O)O)C[N+](C)(C)C.[Cl-]` (racemic) [Palmitoyl-DL-carnitine Cl], for which the “Total Nuclei” value in assay [1] (setting [3]) was 1.05. With `Nc1ncc2[nH]cnc2n1` [2-Aminopurine], the “Total Nuclei” value in assay [1] (setting [3]) is 1.07. With `Nc1ncnc2c1c(I)cn2[C@@H]1O[C@H](CO)[C@@H](O)[C@H]1O` [5-Iodotubercidin], the “Total Nuclei” value in assay [1] (setting [3]) is reported as 0.08.

Turning to `N#CC(C#N)=Cc1ccc([N+](=O)[O-])c(O)c1` [AG-126], the “Total Nuclei” value in assay [1] (setting [3]) was 0.99. As for `N#CC(=Cc1ccc2[nH]ccc2c1)C(N)=C(C#N)C#N` [AG-370], the “Total Nuclei” value in assay [1] (setting [3]) is reported as 1.01. In the case of `N#C/C(=C/c1ccc(O)c(O)c1)C(=O)NCc1ccccc1` [AG-490], in assay [2] (setting [4]), the “Total Nuclei Ratio” value was 0.99. Moreover, the “Total Nuclei” value in assay [1] (setting [3]) stood at 1.04. Turning to `N#C/C(=C\c1ccc(O)c(O)c1)C(=O)Nc1ccccc1` [AG-494], the “Total Nuclei” value in assay [1] (setting [3]) turned out to be 1.10. Turning to `COc1cc(/C=C(\C#N)C(N)=O)cc(CSc2nc3ccccc3s2)c1O` [AG-825], the “Total Nuclei” value in assay [1] (setting [3]) is 1.05. Same read-out and setting: under `CC(C)(C)c1cc(/C=C(\C#N)C(N)=S)cc(C(C)(C)C)c1O` [AG-879] stands 1.03; under `COc1cc2ncc(-c3ccccc3)nc2cc1OC` [AG-1296], 1.09; under `O=c1cc(-c2ccc(O)cc2)oc2cc(O)cc(O)c12` [Apigenin], 1.05.

As for `Cc1ccc(S(=O)(=O)/C=C/C#N)cc1` [BAY 11-7082], in assay [1] (setting [3]), the “Total Nuclei” value came to 0.93. Turning to `O=C(O)c1ccc2nc(-c3ccccc3)c(-c3ccccc3)nc2c1` [BML-257], in assay [1] (setting [3]), the “Total Nuclei” value is recorded as 0.98.

On to `CC(C)c1cnc(NC(=O)Cc2ccccc2)s1` [BML-259], for which the “Total Nuclei Ratio” value in assay [2] (setting [4]) was found to be 0.99. Moreover, in assay [1] (setting [3]), the “Total Nuclei” value is recorded as 1.04.

Take `C#Cc1cccc(Nc2ncnc3cc(OC)c(OC)cc23)c1` [BML-265]: the “Total Nuclei Ratio” value in assay [2] (setting [4]) is given as 0.97. The “Total Nuclei” value in assay [1] (setting [3]) is 1.06. With `OC[C@H]1O[C@@H](n2cnc3cc(Cl)c(Cl)cc32)[C@H](O)[C@@H]1O` [DRB, 5,6-Dichloro-1-b-D-ribofuranosylbenzimidazole], the “Total Nuclei” value in assay [1] (setting [3]) amounted to 1.01.

For the molecule `O=c1c(-c2ccc(O)cc2)coc2cc(O)ccc12` [Daidzein], in assay [1] (setting [3]), the “Total Nuclei” value is given as 1.03. Regarding `COC(=O)/C=C/c1cc(O)ccc1O` [Erbstatin analog], the “Total Nuclei” value in assay [1] (setting [3]) stood at 0.82. Consider `CN(C)CCCn1cc(C2=C(c3c[nH]c4ccccc34)C(=O)NC2=O)c2ccccc21` [GF 109203X], for which the “Total Nuclei Ratio” value in assay [2] (setting [4]) was found to be 0.82. The “Total Nuclei” value in assay [1] (setting [3]) is reported as 1.05. In the same order, the values of `O=C1Nc2ccc(I)cc2/C1=C/c1cc(Br)c(O)c(Br)c1` [GW 5074] are 1.11 and 1.06. As for `O=c1c(-c2ccc(O)cc2)coc2cc(O)cc(O)c12` [Genistein], the “Total Nuclei” value in assay [1] (setting [3]) is given as 1.03. `CC1CNCCN1S(=O)(=O)c1cccc2cnccc12` (stereo not drawn) [H-7]: the “Total Nuclei Ratio” value in assay [2] (setting [4]) is given as 1.09. In addition, in assay [1] (setting [3]), the “Total Nuclei” value came to 1.02. Take `CNCCNS(=O)(=O)c1cccc2cnccc12` [H-8]: in assay [1] (setting [3]), the “Total Nuclei” value is 0.99.

With `NCCNS(=O)(=O)c1cccc2cnccc12` [H-9], in assay [2] (setting [4]), the “Total Nuclei Ratio” value came out at 1.13. Moreover, the “Total Nuclei” value in assay [1] (setting [3]) came out at 1.00. On to `Cl.Cl.O=S(=O)(NCCNC/C=C/c1ccc(Br)cc1)c1cccc2cnccc12` [H-89], for which, in assay [2] (setting [4]), the “Total Nuclei Ratio” value amounted to 1.08. In addition, the “Total Nuclei” value in assay [1] (setting [3]) was determined as 1.09. In the same order, the values of `NC(N)=NCCNS(=O)(=O)c1cccc2cnccc12` [HA-1004] are 1.08 and 1.08.

`O=S(=O)(c1cccc2cnccc12)N1CCCNCC1` [HA-1077]: the “Total Nuclei Ratio” value in assay [2] (setting [4]) is 1.07. Also, the “Total Nuclei” value in assay [1] (setting [3]) was found to be 1.02.

On to `COCc1cc(O)c(O)c(O)c1-c1c(COC)cc(O)c(O)c1O` [HBDDE, 2,2′,3,3′,4,4′-Hexahydroxy-1,1′-biphenyl-6,6′-dimethanol dimethyl ether], for which, in assay [1] (setting [3]), the “Total Nuclei” value is reported as 1.07. On to `O=C(O)c1cc(NCc2cc(O)ccc2O)ccc1O` [HDBA, 2-Hydroxy-5-(2,5-dihydroxybenzylamino)benzoic acid], for which, in assay [1] (setting [3]), the “Total Nuclei” value was 0.99. `O=P(O)(O)C(O)c1ccc2ccccc2c1` (stereo not drawn) [HNMPA, Hydroxy-2-naphthalenylmethylphosphonic acid]: the “Total Nuclei” value in assay [1] (setting [3]) is 1.01. On to `Cc1cc(O)c2c(=O)c3c(O)cc(O)c4c5c(O)cc(O)c6c(=O)c7c(O)cc(C)c8c1c2c(c34)c(c78)c65` [Hypericin], for which the “Total Nuclei” value in assay [1] (setting [3]) amounted to 1.07. On to `O=C1Nc2ccccc2/C1=C1/Nc2ccccc2C1=O` [Indirubin], for which the “Total Nuclei” value in assay [1] (setting [3]) worked out at 1.01. As for `CN([C@@H](Cc1ccc(OS(=O)(=O)c2cccc3cnccc23)cc1)C(=O)N1CCN(c2ccccc2)CC1)S(=O)(=O)c1cccc2cnccc12` [KN-62], the “Total Nuclei Ratio” value in assay [2] (1 uM, steps 3 and 4) is 1.02 and 1.03. Further, the “Total Nuclei” value in assay [1] (setting [3]) was found to be 0.96.

Regarding `COc1ccc(S(=O)(=O)N(CCO)c2ccccc2CN(C)CC=Cc2ccc(Cl)cc2)cc1` [KN-93], the “Total Nuclei Ratio” value in assay [2] (1 uM, steps 3 and 4) is 1.05 and 1.04. For the same molecule, the “Total Nuclei” value in assay [1] (setting [3]) worked out at 1.04. On to `C/C(O)=C(\C#N)C(=O)Nc1cc(Br)ccc1Br` [LFM-A13], for which, in assay [1] (setting [3]), the “Total Nuclei” value is 0.97.

For the molecule `O=C(O)c1cc(N(Cc2ccccc2O)Cc2cc(O)ccc2O)ccc1O` [Lavendustin A], the “Total Nuclei” value in assay [1] (setting [3]) was 1.02. Consider `O=S(=O)(c1cccc2c(I)cccc12)N1CCCNCC1` [ML-7], for which the “Total Nuclei” value in assay [1] (setting [3]) is recorded as 0.98. `Cl.O=S(=O)(c1cccc2c(Cl)cccc12)N1CCCNCC1` [ML-9]: the “Total Nuclei” value in assay [1] (setting [3]) was 1.06. For `CC(C)n1cnc2c(NCc3ccccc3)nc(NCCO)nc21` [N9-Isopropyl-olomoucine], the “Total Nuclei” value in assay [1] (setting [3]) was determined as 1.05. For `Cn1cnc2c(NCc3ccccc3)nc(NCCO)nc21` [Olomoucine], the “Total Nuclei” value in assay [1] (setting [3]) was found to be 1.04. As to `CO[C@@H]1[C@H](N(C)C(=O)c2ccccc2)C[C@H]2O[C@]1(C)n1c3ccccc3c3c4c(c5c6ccccc6n2c5c31)C(=O)NC4` [PKC-412], the “Total Nuclei” value in assay [1] (setting [3]) is 0.17. On the same count and under the same terms, under `Cc1ccc(-c2nn(C(C)(C)C)c3ncnc(N)c23)cc1` [PP1] stands 0.99; under `CC(C)(C)n1nc(-c2ccc(Cl)cc2)c2c(N)ncnc21` [PP2], 1.01. In the case of `Oc1cc(O)cc(/C=C/c2ccc(O)c(O)c2)c1` [Piceatannol], in assay [1] (setting [3]), the “Total Nuclei” value is 1.07. In the case of `O.O.O=c1c(O)c(-c2ccc(O)c(O)c2)oc2cc(O)cc(O)c12` [Quercetin dihydrate], in assay [1] (setting [3]), the “Total Nuclei” value was determined as 0.97. As to `N#C/C(=C\c1cc(Cl)cc(Cl)c1)c1cccnc1` [RG-14620], in assay [1] (setting [3]), the “Total Nuclei” value was found to be 1.02. On to `CO[C@H]1C[C@@H]2CC[C@@H](C)[C@@](O)(O2)C(=O)C(=O)N2CCCC[C@H]2C(=O)O[C@H]([C@H](C)C[C@@H]2CC[C@@H](O)[C@H](OC)C2)CC(=O)[C@H](C)/C=C(\C)[C@@H](O)[C@@H](OC)C(=O)[C@H](C)C[C@H](C)/C=C/C=C/C=C/1C` [Rapamycin], for which, in assay [1] (setting [3]), the “Total Nuclei” value is given as 0.47. Consider `CS(=O)(=O)O.Cn1cc(C2=C(c3cn(CCCSC(=N)N)c4ccccc34)C(=O)NC2=O)c2ccccc21` [Ro 31-8220], for which the “Total Nuclei” value in assay [1] (setting [3]) amounted to 0.09.

For the molecule `CC[C@H](CO)Nc1nc(NCc2ccccc2)c2ncn(C(C)C)c2n1` [Roscovitine], the “Total Nuclei” value in assay [1] (setting [3]) was determined as 1.03.

In the case of `CC(=O)c1c(O)c(C)c(O)c(Cc2c(O)c3c(c(C(=O)/C=C/c4ccccc4)c2O)OC(C)(C)C=C3)c1O` [Rottlerin], the “Total Nuclei” value in assay [1] (setting [3]) was determined as 0.24. For `Oc1c2ccccc2c2c3c(cccc13)N=N2` [SP 600125], in assay [1] (setting [3]), the “Total Nuclei” value was 1.04. The same measure, in the same setting: under `CC(C)c1cc(/C=C(\C#N)C(=O)NCCCc2ccccc2)cc(C(C)C)c1O` [SU1498] stands 1.01; under `CN(C)c1ccc(C=C2C(=O)Nc3ccccc32)cc1` [SU 4312], 1.07; under `CCCCCCCCCCCCC/C=C/[C@@H](O)[C@@H](N)CO` [Sphingosine], 1.04.

As for `CN[C@@H]1C[C@H]2O[C@@](C)([C@@H]1OC)n1c3ccccc3c3c4c(c5c6ccccc6n2c5c31)C(=O)NC4` [Staurosporine], in assay [1] (setting [3]), the “Total Nuclei” value turned out to be 0.13.

On to `CC1=C(O)C(=O)[C@@H]2O[C@@H]2C1=O` [Terreic acid], for which the “Total Nuclei” value in assay [1] (setting [3]) came out at 1.02. Regarding `CC(C)(C)c1cc(C=C(C#N)C#N)cc(C(C)(C)C)c1O` [Tyrphostin 9], the “Total Nuclei” value in assay [1] (setting [3]) is given as 0.28.

For `N#CC(C#N)=Cc1ccc(O)c(O)c1` [Tyrphostin 23], in assay [1] (setting [3]), the “Total Nuclei” value came out at 1.03.

Turning to `N#CC(C#N)=Cc1cc(O)c(O)c(O)c1` [Tyrphostin 25], the “Total Nuclei” value in assay [1] (setting [3]) is given as 1.02.

Consider `N#C/C(=C\c1ccc(O)c(O)c1)C(N)=O` [Tyrphostin 46], for which the “Total Nuclei” value in assay [1] (setting [3]) stood at 1.05.

Consider `N#C/C(=C\c1ccc(O)c(O)c1)C(N)=S` [Tyrphostin 47], for which the “Total Nuclei” value in assay [1] (setting [3]) was 1.00. As to `N#CC(C#N)=C(N)/C(C#N)=C/c1cc(O)c(O)c(O)c1` [Tyrphostin 51], the “Total Nuclei” value in assay [1] (setting [3]) was 1.04.

`N#CC(C#N)=Cc1cc(O)c(O)c([N+](=O)[O-])c1` [Tyrphostin AG 1288]: the “Total Nuclei” value in assay [1] (setting [3]) is 1.04. The same measure, in the same setting: with `Cc1cc2ncc(-c3ccccc3)nc2cc1C` [Tyrphostin AG 1295] the figure was 1.08; with `COc1cc2ncnc(Nc3cccc(Cl)c3)c2cc1OC` [Tyrphostin AG 1478], 1.10. Turning to `N#CC(=C(/N)Sc1ccccc1N)/C(C#N)=C(\N)Sc1ccccc1N` [U-0126], the “Total Nuclei” value in assay [1] came to 0.87. `COC[C@H]1OC(=O)c2coc3c2[C@@]1(C)C1=C(C3=O)[C@@H]2CCC(=O)[C@@]2(C)C[C@H]1OC(C)=O` [Wortmannin]: the “Total Nuclei” value in assay [1] (setting [3]) is listed as 1.10. `C[C@@H](N)[C@H]1CC[C@H](C(=O)Nc2ccncc2)CC1` [Y-27632]: in assay [1] (setting [3]), the “Total Nuclei” value is reported as 1.08. In the case of `Cc1ccc(NC(=O)c2cccc(N(C)C)c2)cc1NC(=O)c1ccc(O)cc1` [ZM 336372], in assay [1] (setting [3]), the “Total Nuclei” value is given as 1.06. Turning to `C=CC(=O)c1ccc2ccccc2c1` [ZM 449829], the “Total Nuclei” value in assay [1] (setting [3]) is given as 1.01. Take `Cn1cnc2nc(NCCO)nc(NCc3ccccc3)c21` [iso-Olomoucine]: the “Total Nuclei” value in assay [1] (setting [3]) was 1.04. On to Indirubin-3′-monoxime, for which, in assay [1] (setting [3]), the “Total Nuclei” value was determined as 0.96.
